{"source": "patent US5985926A", "about": "“Method for inhibiting intracellular viral replication” (Cell Therapeutics, Inc., priority 1997, dated 1999)", "key": {"[1]": {"tested_on": "HIV-1 strain JR-CSF in PBL", "test": "HIV-1 p24 antigen expression in acutely infected peripheral blood lymphocytes (PBL)", "assay_type": "cell-based, HIV-1; human cells", "settings": "Human immunodeficiency virus 1, Lymphocyte, clinical isolate", "experimental": "FIG. 17 illustrates a dose response curves of CT2576 on constitutive, TNF-α, and IL-6-mediated expression of HIV-1 in a chronically infected U1 cell line (left Y-axis) and of CT3537 on HIV expression in PBL acutely infected with the JR-CSF primary isolate (right Y-axis). U1 cells were incubated for four days after the addition of CT2576 with or without TNF-α (20 pg/ml) or IL-6 (1 ng/ml). PBL were inoculated with HIV at 10 ng virus/10^6 cells/well and incubated with various concentrations of CT3537 for 7 days. Each data point represents the average expression levels of HIV-1 p24-antigen in the cell supernatants measured by ELISA from triplicate samples with error bar indicating the SD.\nStable cell lines 293tar, 293tat and 293tat2 were generated by transfections using conditions described in (Tate et al., FASEB J. 4:227-231, 1990) with the plasmid pHIV.AP alone or along with either pHIV.tat or pSV2tat72, respectively. The assay of HIV-1 p24 antigen expression in the chronically HIV-1-infected promonocytic line U1 after 4 days and in acutely infected peripheral blood lymphocytes (PBL) after 7 days were described (Peterson et al., J. Clin. Invest. 89:574-580, 1992, and Brighty et al., Proc Natl. Acad. Sci. USA 88:7802-7805, 1991). […]"}, "[2]": {"tested_on": "HIV-LTR promoter (tat transactivation) in 293-EBNA cells", "test": "AP reporter gene expression from HIV-LTR promoter with tat expression vector, 293-EBNA cells", "assay_type": "cell-based, HIV; human cells", "how_it_was_run": "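293-EBNA cells were transiently co-transfected with an HIV-LTR-driven secreted placental alkaline phosphatase reporter and a tat(1–72) expression plasmid. At 24 h, the medium was switched to serum-free AIM V before compounds were added at various concentrations. Secreted AP activity was read colorimetrically at 405 nm 19–24 h later.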"}, "[3]": {"tested_on": "CMV promoter in 293-EBNA cells", "test": "AP reporter gene expression from CMV promoter, 293-EBNA cells stably transfected with pCMV.AP", "assay_type": "cell-based, human cytomegalovirus; human cells", "settings": "Homo sapiens, 293-EBNA; FIG. 8; read-out: concentration inhibiting AP activity by 50% (CMV assay)", "how_it_was_run": "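293-EBNA cells carrying episomal pCMV.AP, expressing secreted placental alkaline phosphatase from the CMV enhancer/promoter, treated with various compound concentrations. Reporter expression read as change in A405 of conditioned medium with substrate such as ortho-nitrophenol phosphate.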"}, "[4]": {"test": "Viability of 293-EBNA cells, Alamar Blue", "assay_type": "cell-based, human", "settings": "human, 293-ebna cells; read-out: LD50 (CMV assay, FIG. 9)", "how_it_was_run": "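Viability read with Alamar Blue, a vital dye reduced by mitochondrial dehydrogenases to a soluble product. Signal quantified as the absorbance difference between A570 and A600.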"}, "[5]": {"test": "Viability of 293-EBNA cells (dye not stated)", "settings": "human"}, "HIV infection": {"tested_on": "HIV infection", "settings": "cited from earlier work"}, "[6]": {"tested_on": "HIV in chronically infected cell lines", "settings": "cited from earlier work"}, "[7]": {"tested_on": "LPAAT (lysophosphatidate acyl-CoA acyltransferase)", "test": "LPAAT inhibition in vitro", "assay_type": "biochemical, mammalian", "settings": "Lineweaver-Burke graph", "description": "The mammalian cell membrane associated enzyme lysophosphatidate acyl-CoA acyltransferase (LPAAT) catalyzes the transfer of acyl CoA from lysophosphatidic acid (lyso-PA) to phosphatidic acid (PA) species. Certain PA species function as lipid intermediates in cell activation and function directly as intracellular signaling molecules. PA is subsequently dephosphorylated to 1,2-sn diacylglycerol (DAG) via phosphatidate phosphohydrolase (PAH). The compounds that inhibit viral replication, gene expression and viral antigen release in infected cells also have decreased amounts of intracellular PA species that are formed in response to inflammatory cellular activation. […] Therefore, if PA derived from lyso-PA is an important intracellular signaling intermediate for TNF or IL-1 induced viral replication in virally-infectedcells, then inhibitors of PA formation will act to prevent progression of viral diseases by blocking cell signaling to stimulate virion formation."}, "[8]": {"tested_on": "HIV-1 in U1 cells (constitutive expression)", "test": "Constitutive HIV-1 p24 antigen expression in chronically infected U1 cells", "assay_type": "cell-based, HIV-1; human cells", "settings": "U1 cells plated at high density; in words", "experimental": "(§1) Another assay examined the effect of compounds on chronically HIV-1 infected U1 cells. A relatively high density of U1 cells at 10^4 cells/well were incubated in the absence or presence of compounds for 4 days. HIV-1 p24 antigen expression in the culture media was measured by using a ELISA kit (Abbott). Alternatively, U1 cells were plated at a relatively low density of 2×10^3 cell/well plus or minus TNF at 20 pg/ml and plus or minus compounds. The expression of HIV-1 p24 antigen in culture media was measured by ELISA four days later.\n(§2) Stable cell lines 293tar, 293tat and 293tat2 were generated by transfections using conditions described in (Tate et al., FASEB J. 4:227-231, 1990) with the plasmid pHIV.AP alone or along with either pHIV.tat or pSV2tat72, respectively. The assay of HIV-1 p24 antigen expression in the chronically HIV-1-infected promonocytic line U1 after 4 days and in acutely infected peripheral blood lymphocytes (PBL) after 7 days were described (Peterson et al., J. Clin. Invest. 89:574-580, 1992, and Brighty et al., Proc Natl. Acad. Sci. USA 88:7802-7805, 1991).\n(§3) This example illustrates that CT2576 inhibited both constitutive and cytokine-induced HIV expression in a chronically-infected U1 cell line. A chronically HIV-1 infected human promonocyte cell line, U1 (Poli et al., J. Exp. Med. 172:151-158, 1990), was used as a model to see if the inhibitory effect of CT2576 on HIV-LTR driven reporter gene expression could be extended to block HIV replication per se in infected cells. TNF-α and IL-6 have been reported to upregulate the expression of HIV-1 in U1 cells (Poli et al., Proc Natl. Acad. Sci. USA 91:108-112, 1994). U1 cells were plated onto 24-well microtiter plates to study the dose-response effect of CT2576 on the constitutive (10^4 cells/well), TNF-α or IL-6 mediated (2×10^3 cells/well) expression of HIV-1. CT2576 was capable of inhibiting the constitutive, the TNF-α mediated, as well as the IL-6 mediated expression of HIV in U1 cells with an IC50 value of less than 1 μM (FIG. 17)."}, "[9]": {"tested_on": "HIV-1 in U1 cells (TNF-α mediated expression)", "test": "TNF-α-mediated HIV-1 p24 antigen expression in chronically infected U1 cells", "assay_type": "cell-based, HIV-1; human cells", "settings": "U1 cells; in words", "experimental": "as §1, §2, §3"}, "[10]": {"tested_on": "HIV in infected monocytic cells", "test": "HIV replication, gene expression and p24 release in infected monocytic cells stimulated by TNF", "assay_type": "cell-based", "settings": "TNF activation", "experimental": "as §1"}, "[11]": {"tested_on": "HIV-LTR promoter / tat protein", "settings": "through interaction with the tat protein; cited from earlier work"}}, "note": "Entries after “also recorded” stand apart in the source; their conditions may differ.", "data": [{"molecule": "CCCCCCCCN(CC(CCCCCCCCCn1c(=O)c2c(ncn2C)n(C)c1=O)OC(C)=O)C(C)=O", "note": "(stereo not shown) [CT3537, 1-[11-(N-octylacetamido)-10-acetoxyundecyl]-3,7-dimethylxanthine]", "values": [{"measurement": "IC50", "setting": "[1]", "result": "< 1", "unit": "µM"}]}, {"molecule": "CCCCCCCCNCC(O)CCCCCCCCCn1c(=O)c2[nH]cnc2n(C)c1=O", "note": "(stereo not shown) [CT1416, N-(11-octylamino-10-hydroxyundecyl)-3-methylxanthine]", "values": [{"measurement": "IC50", "setting": "[2]; Homo sapiens, 293-EBNA, read-out: concentration inhibiting AP expression by 50%", "result": "1 to 4", "unit": "µM"}, {"measurement": "IC50", "setting": "[3]", "result": "2 to 6", "unit": "µM"}, {"measurement": "CC50", "setting": "[4]", "result": "~5", "unit": "µM"}, {"measurement": "effect on cell viability / cytotoxicity", "setting": "293-EBNA cells", "result": "some cytotoxicity"}, {"measurement": "CC50", "setting": "[5]", "result": "~5", "unit": "µM"}]}, {"molecule": "Cc1cn([C@H]2C[C@H](N=[N+]=[N-])[C@@H](CO)O2)c(=O)[nH]c1=O", "note": "[AZT]", "values": [{"measurement": "progression of AIDS disease", "setting": "HIV infection; asymptomatic patients, early stage HIV infection", "result": "no delay in the progression of AIDS disease"}, {"measurement": "CD4+ T cell number", "setting": "HIV infection; treatment versus placebo group", "result": "consistently higher number of CD4^+ T cells"}, {"measurement": "activity on HIV replication in chronically infected cell lines", "setting": "[6]", "result": "not to be active"}]}, {"molecule": "C[C@@H](O)CCCCn1c(=O)c2c(ncn2C)n(C)c1=O", "note": "[CT1501R, R-1-(5-hydroxyhexyl)-3,7-dimethylxanthine]", "values": [{"measurement": "mode of LPAAT inhibition", "setting": "[7]", "result": "competitive inhibition"}, {"measurement": "inhibition of AP expression (HIV-LTR promoter)", "setting": "[2]; 293-EBNA cells, HIV promoter, in words", "result": "No appreciable inhibition of AP expression; also recorded: did not affect AP activity"}, {"measurement": "suppression of constitutive HIV-1 expression (p24)", "setting": "[8]", "result": "suppressed constitutive HIV-1 expression"}, {"measurement": "suppression of TNFα-mediated HIV-1 expression (p24)", "setting": "[9]", "result": "suppressed HIV-1 expression"}, {"measurement": "antiviral activity in TNF-stimulated infected monocytic cells", "setting": "[10]", "result": "inhibiting HIV replication, gene expression and p24 release"}, {"measurement": "effect on cell viability / cytotoxicity", "setting": "293-EBNA cells", "result": "did not affect AP activity and cell viability significantly"}]}, {"molecule": "CNC1=Nc2ccc(Cl)cc2C(c2ccc[nH]2)=NC1", "note": "[Ro 24-7429]", "values": [{"measurement": "block of HIV-LTR promoter transcription", "setting": "[11]", "result": "blocks HIV-LTR promoter transcription"}]}]}
